Assay results: PubChem BioAssay AID2253 (Southern Research Specialized Biocontainment Screening …, 2010)

tested on: THP-1 viability, CellTiter-Glo luminescence, 72 h; assay: human monocytic cell viability reduction – S. typhimurium screen hits, cytotoxicity control for Salmonella PhoP regulon inhibitors, dose response (AID 2253)

| SMILES | EC50 [µM] |
| --- | --- |
| CNc1cc(Cl)c2nonc2c1[N+](=O)[O-] | 3.65 |
| COC(=O)c1c(NC(=O)c2ccc([N+](=O)[O-])o2)sc2c1CCN(C(C)C)C2 | 1.2 |
| Cn1c(=N)n(CC(=O)c2ccc(Br)s2)c2ccccc21 | 10.1 |
| Cc1ccc(C(C)C)c(OCC(=O)N2CCN(Cc3nc4cc([N+](=O)[O-])ccc4n3C)CC2)c1 | 25.9 |
| Oc1cc(Cl)ccc1Oc1ccc(Cl)cc1Cl | 33.9 |
| CCOc1ccc(Nc2nc(N)c3ccccc3n2)cc1 | 7.05 |
| Clc1ccc(CN2CCC(c3nc4ccc(Cl)cc4[nH]3)CC2)cc1 | 29.4 |
| Cc1ccc(C(C[N+](=O)[O-])c2c(C)cc3ccccn23)cc1 (centres undefined) | 15.4 |
| Cc1cc(C)cc(CC(Cc2nc3ccccc3[nH]2)c2nc3ccccc3[nH]2)c1 (centres undefined) | 11.8 |
| Cc1ccc(/C=C2\SC(=S)N(Cc3ccccc3)C2=O)o1 | 24.4 |
| CCCCCOc1ccc(CSC(=N)N)cc1[N+](=O)[O-] | 7.91 |
| COc1ccc(-c2cn[nH]c2-c2ccc(OCc3ccc([N+](=O)[O-])cc3)cc2O)cc1 | 15.1 |
| O=C(N/N=C/c1cc2c3c(c1O)CCCN3CCC2)c1ccccc1O | 3.56 |
| CCCCC(CC)CN=C(N)NC(N)=NCCCCCCN=C(N)NC(N)=NCC(CC)CCCC (centres undefined) | 1.9 |
| NC1=NC[C@H](Cc2ccc(O)cc2)N1CCCCC1CCCCC1 | 2.63 |
| CC(=O)NC(c1ccc2ccccc2c1)c1ccc2cccnc2c1O (centres undefined) | 0.24 |
| O=C(CSCc1ccccc1)N/N=C/c1ccccc1OCc1ccccc1 | 46.6 |
| Cc1ccc(C=Nc2ccccc2C(N)=O)cc1 | 8.83 |
| Cc1cc(C(=O)N/N=C/c2cc(Br)cc([N+](=O)[O-])c2O)c2ccccc2n1 | 23 |
| OC(c1cc(-c2ccc(C(F)(F)F)cc2)nc(C(F)(F)F)c1)C1CCCCN1 (centres undefined) | 6.15 |

| SMILES | EC50 [µM] |
| --- | --- |
| N=c1c2c(n(Cc3ccc(Br)cc3)c3c1CCC3)CCCC2 | 3.88 |
| O=C(Cc1ccccc1)Nc1cccc(N2C(=O)C=CC2=O)c1 | 16.1 |
| COc1ccc(/C=C/C(=O)NC(=S)NNC(=O)c2cnccn2)cc1 | 2.02 |
| CC(=O)c1ccc(NC(=O)Nc2cccc(Cl)c2)cc1 | 20.1 |
| CCc1nn2cc(C(=O)c3cc(Cl)ccc3O)cnc2c1-c1ccc(F)cc1 | 38.3 |
| CN1/C(=C\C=C\C2=[N+](C)c3ccc4ccccc4c3C2(C)C)C(C)(C)c2ccccc21 | 0.15 |
| CCN(CC)S(=O)(=O)c1cccc(C(=O)N/N=C/c2ccc(O)c(O)c2O)c1 | 6.68 |
| O=C(N/N=C/c1cc(O)ccc1Br)c1cccnc1 | 2.25 |
| COc1ccc2[nH]c3c(C)c4ccncc4c(C)c3c2c1 | 1.27 |
| Oc1ccc(N=Cc2ccc(O)c(O)c2)cc1 | 7.64 |
| COc1ccc(OC)c(/C=N/NC(=O)c2cc3c(OC)c(OC)ccc3[nH]2)c1 | 43.8 |
| CCn1c(C)cc(=S)c2ccccc21 | 48.2 |
| O=S(=O)(Nc1ccc2ccccc2c1)c1ccccc1 | 47.2 |
| CCCCCCCCCn1c2c(c(=N)c3c1CCC3)CCC2 | 0.42 |
| COc1cc([N+](=O)[O-])cc(/C=N/NC(=O)c2cccnc2)c1O | 32 |
| COc1cccc(C2CC(=O)Nc3cc(OC)c(OC)c(OC)c32)c1OC (centres undefined) | 46.2 |
| O=c1[nH]c(NCc2ccco2)nnc1Cc1ccccc1Cl | 6.65 |
| NC1=NC(=Nc2ccc(Cl)cc2)c2ccccc21 | 22.4 |
| CC(=O)NC(c1ccc(C)cc1)c1cc([N+](=O)[O-])c2cccnc2c1O (centres undefined) | 6.41 |
| COc1ccccc1-n1c(SCc2cc(=O)oc3cc(O)ccc23)nc2ccccc2c1=O | 21.6 |

| SMILES | EC50 [µM] |
| --- | --- |
| CCN(CC)c1ccc(S(=O)(=O)Nc2cc(Cl)ccc2Cl)cc1NC(=S)NC(=O)C1CCCC1 | 40 |
| Clc1ccc(OCCn2ccnc2)c2ccccc12 | 43.5 |
| CC1(C)CC(=O)C2=C(C1)N(c1ccc(F)cc1)C(N)=C(C#N)C2c1cccs1 (centres undefined) | 35.6 |
| COc1ccc(C(=O)N2CCc3cc(OC)c(OC)cc3C2)cc1OC | 36.7 |
| COc1cccc(-c2nnc3sc(-c4ccc(C)cc4)nn23)c1 | 44.3 |
| O=C(O)CSc1cc(NS(=O)(=O)c2cccc([N+](=O)[O-])c2)c2ccccc2c1O | 8.07 |
| O=S(=O)(c1ccccc1)N(CC(O)Cn1c2ccccc2c2ccccc21)c1ccccc1 (centres undefined) | 11.1 |
| c1ccc(CNc2nc(N3CCN(Cc4ccccc4)CC3)nc3ccccc23)cc1 | 21.6 |
| N#CC1=C(N)Oc2c(O)cc3ccccc3c2C1c1ccsc1 (centres undefined) | 21.3 |
| CCn1c2ccccc2c2cc(N)ccc21 | 16.1 |
| S=C(NCc1cccnc1)Nc1ccc(Cl)c(Cl)c1 | 40 |
| Cn1c(NCc2cc(Br)ccc2O)nc2ccccc21 | 37.5 |
| Cc1cc(C)n(-c2nc(NCCN(C)C)c3c4c(sc3n2)CCCC4)n1 | 4.63 |
| Cc1ccc([N+](=O)[O-])cc1-c1ccc(/C=C(\C#N)c2[nH]nc(N)c2C#N)o1 | 5.93 |
| Nc1ccc(Nc2ccccc2)cc1 | 11.6 |
| CC[C@@H](C)[C@H](CNC)NC[C@@H](Cc1cccc2ccccc12)NCCc1cccc(C(F)(F)F)c1 | 7 |
| CCCCCCCOC(=O)C[N+](C)(C)CCOC1CC2CCC1(C)C2(C)C (centres undefined) | 2.07 |
| Cc1ccnc(NC(c2cccnc2)c2ccc3cccnc3c2O)c1 (centres undefined) | 12 |
| Cc1[nH]n(-c2ncc(-c3ccc(Cl)cc3)s2)c(=O)c1C(c1ccc(Cl)cc1)C(C#N)C#N (centres undefined) | 45 |
